For series [1] the following is noted: relative to (S)-(+)-pregabalin, type of activity not specified, cited from earlier work.
Series [2] can be described thus: hygroscopicity of anhydrous pregabalin. To be noted: moisture content less than about 0.3% w/w. The series is classed as physicochemical.
A short description of series [3]: accelerated stability testing. To be noted: anhydrous pregabalin, moisture content less than about 0.3% w/w.

Structures are written as SMILES. Read-outs that look alike come from different tables or passages of the source.

Regarding `CC(C)C[C@@H](CN)CC(=O)O` (single isomer, unassigned) [(R)-(−)-enantiomer of pregabalin], the “times less active when compared with the (S)-(+)-enantiomer” value was “about 40 times” in series [1] and 40 times in series [1] (listed as (R)-(−)-enantiomer).

`CC(C)CC(CN)CC(=O)O` (stereo in doubt) [anhydrous pregabalin, (S)-(+)-3-aminomethyl-5-methyl-1-hexanoic acid]: in series [2], the hygroscopicity result is “non-hygroscopic”. For the same compound, in series [3], the “stability during the accelerated stability testing” value is “stable”.

The values are drawn from patent US20060270871A1, “P[…] I OF […] PROCESSES FOR ITS PREPARATION” (priority 2005, published 2006).
